Data: PMC12586182 (Frontiers in Oncology, 2025)

How the values were obtained:
Test in all cases: Kinase panel profiling at 1 µmol/L (mobility shift assay, Carna)
Assay type in all cases: biochemical
Settings in all cases: 1 µmol/L of BTK inhibitor
EPHA1 = molecular target: T1, EPHA1 (Homo sapiens, UniProt P21709)
T1 construct: purchased Carna Biosciences
T1 sequence (P21709 26-976): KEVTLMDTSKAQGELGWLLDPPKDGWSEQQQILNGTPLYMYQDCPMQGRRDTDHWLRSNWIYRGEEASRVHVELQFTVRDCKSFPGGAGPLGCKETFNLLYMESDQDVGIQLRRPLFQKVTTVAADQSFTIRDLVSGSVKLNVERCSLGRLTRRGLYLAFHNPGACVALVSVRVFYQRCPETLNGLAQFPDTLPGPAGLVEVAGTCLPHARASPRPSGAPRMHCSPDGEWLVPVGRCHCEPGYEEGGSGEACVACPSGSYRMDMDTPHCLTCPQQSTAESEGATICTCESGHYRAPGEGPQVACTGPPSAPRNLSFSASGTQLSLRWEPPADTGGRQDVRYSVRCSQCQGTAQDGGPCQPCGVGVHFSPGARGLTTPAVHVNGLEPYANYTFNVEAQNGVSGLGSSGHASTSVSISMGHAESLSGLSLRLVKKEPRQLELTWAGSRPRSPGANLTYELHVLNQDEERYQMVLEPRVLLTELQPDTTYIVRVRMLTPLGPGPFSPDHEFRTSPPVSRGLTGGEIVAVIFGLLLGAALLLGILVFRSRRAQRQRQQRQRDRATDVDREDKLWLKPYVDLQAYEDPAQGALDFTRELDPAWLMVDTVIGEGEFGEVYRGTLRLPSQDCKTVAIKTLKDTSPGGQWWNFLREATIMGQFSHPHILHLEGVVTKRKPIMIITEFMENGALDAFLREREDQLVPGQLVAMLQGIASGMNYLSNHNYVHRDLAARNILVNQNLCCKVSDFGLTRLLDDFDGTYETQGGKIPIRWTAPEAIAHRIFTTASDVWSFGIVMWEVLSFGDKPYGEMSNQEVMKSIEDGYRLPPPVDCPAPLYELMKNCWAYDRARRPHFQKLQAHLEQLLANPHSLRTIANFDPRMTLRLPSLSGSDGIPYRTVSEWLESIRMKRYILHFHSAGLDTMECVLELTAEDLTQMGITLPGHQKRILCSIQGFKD

CK1γ2 = molecular target: T2, CK1γ2 (Homo sapiens, UniProt P78368)
T2 construct: purchased Carna Biosciences
T2 sequence (P78368 whole entry): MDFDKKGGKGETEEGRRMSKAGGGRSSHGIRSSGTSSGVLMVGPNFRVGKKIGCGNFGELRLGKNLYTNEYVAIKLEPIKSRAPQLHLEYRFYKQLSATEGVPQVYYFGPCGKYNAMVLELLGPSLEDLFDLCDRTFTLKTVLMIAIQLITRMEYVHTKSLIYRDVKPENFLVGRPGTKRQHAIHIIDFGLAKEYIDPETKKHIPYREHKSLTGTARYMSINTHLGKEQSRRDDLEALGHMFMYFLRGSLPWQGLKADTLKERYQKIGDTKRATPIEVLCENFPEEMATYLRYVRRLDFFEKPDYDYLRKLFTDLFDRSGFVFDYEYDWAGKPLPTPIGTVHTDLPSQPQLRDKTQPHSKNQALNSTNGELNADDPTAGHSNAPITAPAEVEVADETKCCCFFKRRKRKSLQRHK

DAPK1 = molecular target: T3, DAPK1 (Homo sapiens, UniProt P53355)
T3 construct: purchased Carna Biosciences
T3 sequence (P53355 whole entry): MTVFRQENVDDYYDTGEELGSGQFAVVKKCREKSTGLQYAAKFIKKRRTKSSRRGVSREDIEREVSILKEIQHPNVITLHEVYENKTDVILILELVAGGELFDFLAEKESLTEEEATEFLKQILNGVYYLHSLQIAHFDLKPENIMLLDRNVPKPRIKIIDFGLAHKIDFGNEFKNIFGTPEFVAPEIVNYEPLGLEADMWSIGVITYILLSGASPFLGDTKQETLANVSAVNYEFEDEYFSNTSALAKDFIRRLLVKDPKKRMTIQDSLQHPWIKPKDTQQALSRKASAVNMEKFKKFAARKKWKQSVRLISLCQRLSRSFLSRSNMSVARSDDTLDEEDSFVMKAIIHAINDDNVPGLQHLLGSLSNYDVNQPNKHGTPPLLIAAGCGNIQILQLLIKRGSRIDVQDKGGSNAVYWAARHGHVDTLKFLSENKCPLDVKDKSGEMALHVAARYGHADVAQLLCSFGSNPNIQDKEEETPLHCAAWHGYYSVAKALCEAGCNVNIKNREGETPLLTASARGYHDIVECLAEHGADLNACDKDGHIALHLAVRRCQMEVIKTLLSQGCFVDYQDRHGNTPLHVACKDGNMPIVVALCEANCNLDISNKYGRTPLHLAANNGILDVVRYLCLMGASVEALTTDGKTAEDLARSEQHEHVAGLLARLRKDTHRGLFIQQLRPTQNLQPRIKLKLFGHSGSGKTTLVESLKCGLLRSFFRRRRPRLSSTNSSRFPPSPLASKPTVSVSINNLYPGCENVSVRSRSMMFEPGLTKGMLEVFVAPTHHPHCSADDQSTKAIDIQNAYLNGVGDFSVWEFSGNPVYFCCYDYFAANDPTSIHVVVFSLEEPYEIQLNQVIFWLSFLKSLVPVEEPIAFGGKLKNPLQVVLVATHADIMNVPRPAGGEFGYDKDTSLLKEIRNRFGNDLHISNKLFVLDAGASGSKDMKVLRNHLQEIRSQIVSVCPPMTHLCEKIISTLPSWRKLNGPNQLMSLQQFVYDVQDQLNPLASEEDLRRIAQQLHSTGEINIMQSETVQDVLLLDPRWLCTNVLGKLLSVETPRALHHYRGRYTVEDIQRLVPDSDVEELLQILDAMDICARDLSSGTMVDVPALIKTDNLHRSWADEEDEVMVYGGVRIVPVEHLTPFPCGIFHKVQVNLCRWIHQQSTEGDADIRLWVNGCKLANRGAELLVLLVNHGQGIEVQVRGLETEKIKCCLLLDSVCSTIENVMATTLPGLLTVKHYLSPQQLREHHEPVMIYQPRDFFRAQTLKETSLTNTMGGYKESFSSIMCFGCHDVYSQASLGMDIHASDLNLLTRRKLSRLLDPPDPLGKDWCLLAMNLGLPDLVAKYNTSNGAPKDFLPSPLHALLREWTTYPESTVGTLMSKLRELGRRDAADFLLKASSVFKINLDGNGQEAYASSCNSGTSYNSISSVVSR

HIPK3 = molecular target: T4, HIPK3 (Homo sapiens, UniProt Q9H422)
T4 construct: purchased Carna Biosciences
T4 sequence (Q9H422 whole entry): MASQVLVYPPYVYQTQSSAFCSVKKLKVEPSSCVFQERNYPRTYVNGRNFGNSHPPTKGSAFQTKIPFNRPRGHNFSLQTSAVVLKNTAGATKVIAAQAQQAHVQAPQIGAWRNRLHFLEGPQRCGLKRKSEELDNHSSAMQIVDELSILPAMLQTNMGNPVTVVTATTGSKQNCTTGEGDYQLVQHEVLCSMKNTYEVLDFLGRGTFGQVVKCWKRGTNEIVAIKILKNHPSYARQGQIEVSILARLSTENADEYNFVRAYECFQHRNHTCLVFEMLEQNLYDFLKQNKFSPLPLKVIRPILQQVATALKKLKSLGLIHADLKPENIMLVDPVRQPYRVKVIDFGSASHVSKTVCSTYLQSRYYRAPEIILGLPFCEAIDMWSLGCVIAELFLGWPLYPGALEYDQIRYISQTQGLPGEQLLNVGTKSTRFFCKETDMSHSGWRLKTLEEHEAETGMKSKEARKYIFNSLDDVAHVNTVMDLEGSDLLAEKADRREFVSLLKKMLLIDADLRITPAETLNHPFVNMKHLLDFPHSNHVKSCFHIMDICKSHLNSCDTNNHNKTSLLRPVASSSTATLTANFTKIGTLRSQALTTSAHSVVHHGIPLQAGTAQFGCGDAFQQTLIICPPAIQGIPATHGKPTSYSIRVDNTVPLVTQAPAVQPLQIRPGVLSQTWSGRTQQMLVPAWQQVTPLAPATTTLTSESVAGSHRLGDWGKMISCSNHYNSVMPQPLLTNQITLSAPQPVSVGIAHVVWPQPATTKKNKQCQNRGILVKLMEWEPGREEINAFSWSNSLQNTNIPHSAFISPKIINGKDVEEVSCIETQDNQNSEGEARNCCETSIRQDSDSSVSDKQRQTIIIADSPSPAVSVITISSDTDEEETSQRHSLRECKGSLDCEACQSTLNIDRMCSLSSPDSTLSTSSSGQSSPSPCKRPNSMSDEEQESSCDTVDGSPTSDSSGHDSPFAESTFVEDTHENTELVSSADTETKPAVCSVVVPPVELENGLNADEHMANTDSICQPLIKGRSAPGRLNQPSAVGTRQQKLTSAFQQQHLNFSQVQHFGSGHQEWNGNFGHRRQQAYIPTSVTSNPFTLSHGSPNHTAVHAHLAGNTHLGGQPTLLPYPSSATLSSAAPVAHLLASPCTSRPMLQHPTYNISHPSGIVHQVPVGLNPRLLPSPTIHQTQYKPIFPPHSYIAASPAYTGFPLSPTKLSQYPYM

IKKα = molecular target: T5, IKKα (Homo sapiens, UniProt O15111)
T5 construct: purchased Carna Biosciences
T5 sequence (O15111 1-745): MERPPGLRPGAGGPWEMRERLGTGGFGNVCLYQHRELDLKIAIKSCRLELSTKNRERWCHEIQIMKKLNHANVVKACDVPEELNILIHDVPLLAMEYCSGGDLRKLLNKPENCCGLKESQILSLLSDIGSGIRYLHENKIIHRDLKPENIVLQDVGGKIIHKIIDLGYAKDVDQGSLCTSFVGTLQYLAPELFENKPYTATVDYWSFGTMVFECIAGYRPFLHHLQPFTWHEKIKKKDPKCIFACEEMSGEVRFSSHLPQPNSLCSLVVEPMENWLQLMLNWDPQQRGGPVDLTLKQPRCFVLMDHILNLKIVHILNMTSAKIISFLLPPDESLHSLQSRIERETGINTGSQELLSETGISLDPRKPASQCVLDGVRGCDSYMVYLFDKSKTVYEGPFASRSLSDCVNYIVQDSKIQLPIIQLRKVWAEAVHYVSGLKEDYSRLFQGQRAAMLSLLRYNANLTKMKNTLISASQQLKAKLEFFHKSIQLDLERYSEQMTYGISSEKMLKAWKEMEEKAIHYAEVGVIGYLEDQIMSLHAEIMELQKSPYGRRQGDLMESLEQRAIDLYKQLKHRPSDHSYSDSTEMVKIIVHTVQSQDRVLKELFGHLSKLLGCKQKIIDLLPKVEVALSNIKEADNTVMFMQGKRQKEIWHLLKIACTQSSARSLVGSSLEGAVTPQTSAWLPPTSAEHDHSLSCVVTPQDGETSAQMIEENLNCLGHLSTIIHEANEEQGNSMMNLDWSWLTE

MARK1 = molecular target: T6, MARK1 (Homo sapiens, UniProt Q9P0L2)
T6 construct: purchased Carna Biosciences
T6 sequence (Q9P0L2 whole entry): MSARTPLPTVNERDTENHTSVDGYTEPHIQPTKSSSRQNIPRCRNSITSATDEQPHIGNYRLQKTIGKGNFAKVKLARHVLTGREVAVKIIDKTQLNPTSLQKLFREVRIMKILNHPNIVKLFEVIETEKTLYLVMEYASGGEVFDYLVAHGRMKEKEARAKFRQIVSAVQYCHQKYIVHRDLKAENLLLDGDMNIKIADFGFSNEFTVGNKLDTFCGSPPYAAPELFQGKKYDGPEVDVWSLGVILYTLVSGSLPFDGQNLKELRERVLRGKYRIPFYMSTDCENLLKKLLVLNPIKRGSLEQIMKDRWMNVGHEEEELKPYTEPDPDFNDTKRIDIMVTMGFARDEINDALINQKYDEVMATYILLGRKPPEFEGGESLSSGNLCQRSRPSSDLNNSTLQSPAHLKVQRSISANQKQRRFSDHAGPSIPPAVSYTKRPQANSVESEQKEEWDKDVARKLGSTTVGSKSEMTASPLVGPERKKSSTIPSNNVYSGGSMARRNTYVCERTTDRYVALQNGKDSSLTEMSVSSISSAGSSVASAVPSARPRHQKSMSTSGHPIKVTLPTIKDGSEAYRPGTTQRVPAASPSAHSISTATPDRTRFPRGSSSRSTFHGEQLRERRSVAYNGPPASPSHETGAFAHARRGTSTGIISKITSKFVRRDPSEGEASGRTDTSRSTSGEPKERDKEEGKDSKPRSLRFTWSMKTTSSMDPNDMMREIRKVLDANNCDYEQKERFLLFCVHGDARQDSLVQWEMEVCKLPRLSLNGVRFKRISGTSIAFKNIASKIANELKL

NDR1 = molecular target: T7, NDR1 (Homo sapiens, UniProt Q15208)
T7 construct: purchased Carna Biosciences
T7 sequence (Q15208 whole entry): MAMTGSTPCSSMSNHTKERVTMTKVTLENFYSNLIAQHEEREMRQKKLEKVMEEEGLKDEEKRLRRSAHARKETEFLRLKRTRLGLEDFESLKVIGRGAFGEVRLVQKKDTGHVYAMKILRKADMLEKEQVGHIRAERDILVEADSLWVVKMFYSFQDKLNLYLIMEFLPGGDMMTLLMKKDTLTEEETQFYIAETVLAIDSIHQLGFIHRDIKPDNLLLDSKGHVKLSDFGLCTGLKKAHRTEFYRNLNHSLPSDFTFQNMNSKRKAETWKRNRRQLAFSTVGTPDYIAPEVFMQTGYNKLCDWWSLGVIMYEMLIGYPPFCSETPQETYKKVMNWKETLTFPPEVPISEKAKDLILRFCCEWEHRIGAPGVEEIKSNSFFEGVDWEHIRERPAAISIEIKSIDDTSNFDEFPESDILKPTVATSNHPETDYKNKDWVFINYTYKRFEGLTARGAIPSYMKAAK

TSSK2 = molecular target: T8, TSSK2 (Homo sapiens, UniProt Q96PF2)
T8 construct: purchased Carna Biosciences
T8 sequence (Q96PF2 1-358): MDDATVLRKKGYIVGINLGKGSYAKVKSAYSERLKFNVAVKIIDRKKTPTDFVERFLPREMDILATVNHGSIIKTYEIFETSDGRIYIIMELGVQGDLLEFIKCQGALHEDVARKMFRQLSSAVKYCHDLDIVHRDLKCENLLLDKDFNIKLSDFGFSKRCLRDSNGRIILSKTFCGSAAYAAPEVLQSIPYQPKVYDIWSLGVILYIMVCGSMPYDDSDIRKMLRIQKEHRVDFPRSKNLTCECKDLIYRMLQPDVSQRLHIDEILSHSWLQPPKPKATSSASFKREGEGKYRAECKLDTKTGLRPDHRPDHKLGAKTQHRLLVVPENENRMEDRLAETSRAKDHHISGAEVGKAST

SMILES | Percentage inhibition of kinase enzyme activity (EPHA1) | Percentage inhibition of kinase enzyme activity (CK1γ2) | Percentage inhibition of kinase enzyme activity (DAPK1) | Percentage inhibition of kinase enzyme activity (HIPK3) | Percentage inhibition of kinase enzyme activity (IKKα) | Percentage inhibition of kinase enzyme activity (MARK1) | Percentage inhibition of kinase enzyme activity (NDR1) | Percentage inhibition of kinase enzyme activity (TSSK2)
CC#CC(=O)N1CCC[C@H]1c1nc(-c2ccc(C(=O)Nc3ccccn3)cc2)c2c(N)nccn12 [acalabrutinib] | -0.59% | -7.07% | -17.45% | -12.04% | -1.45% | -3.49% | -6.32% | -3.11%
C=CC(=O)N1CCC[C@@H](n2nc(-c3ccc(Oc4ccccc4)cc3)c3c(N)ncnc32)C1 [ibrutinib] | 49.82% | 1.01% | -3.80% | 1.67% | 4.34% | 2.46% | 2.65% | -3.91%
O=C(c1ccc(Oc2ccccc2)cc1Cl)c1c[nH]c2ncnc(N[C@@H]3CC[C@@H](CO)OC3)c12 [nemtabrutinib] | 58.54% | -5.17% | -7.44% | 5.34% | 1.80% | 2.15% | 3.34% | -0.84%
C=CC(=O)N1CCC([C@@H]2CCNc3c(C(N)=O)c(-c4ccc(Oc5ccccc5)cc4)nn32)CC1 [zanubrutinib] | -1.86% |  |  |  | -9.91% |  |  | 
COc1ccc(F)cc1C(=O)NCc1ccc(-c2nn([C@@H](C)C(F)(F)F)c(N)c2C(N)=O)cc1 [pirtobrutinib] | -1.27% | 1.27% | -0.51% | 3.06% | -16.22% | -8.44% | 1.20% | -11.71%
